Patent publication US5605892A, “Compositions of arginine amide with cyclodextrin of caffeine, and methods of use” (priority 1993, dated 1997)

What was measured:
[1] = Solubility of argatroban in water (background statement); format: physicochemical; conditions: 25° C., pH range 7.2-7.8
Experimental: (§1) Taking one of the aforementioned arginine amides, (2R,4R)4-methyl-1-[N^2 -((RS)-3-methyl-1,2,3,4-tetrahydro-8-quinolinesulfonyl)-L-arginyl]-2-piperidinecarboxylic acid monohydrate (generally called argatroban) as an example, it is used at a concentration of 1 mg/ml or above as an eye drop or entoptic perfusate for the above-mentioned purpose.

[2] = Solubility test of argatroban in water with various compounds (shaken with excess argatroban, HPLC); format: physicochemical; conditions: for solubility thermodynamic at 12 h: phosphate buffer, pH 7, aqueous buffer, phosphate buffer pH 7.0, 25° C.
Experimental: The solubility of argatroban in water was determined by the use of various compounds.
An excess amount of argatroban was added to a phosphate buffer (pH 7.0) containing a compound at a concentration of 1.0 W/V % and the mixture was shaken at 25° C. for 12 hours. The amount of the argatroban dissolved in this solution was measured by HPLC to determine the solubility.

[3] = Stability test: aqueous solutions in glass ampoules preserved in shade or under light exposure; format: physicochemical; conditions: argatroban with caffeine
Description: Aqueous solutions (pH 7) containing 0.05 W/V % or 0.1 W/V % argatroban and having the formulations 1-6 shown in Table 2 below were filled in glass ampoules and preserved in shade or under light exposure of […]. Each solution was examined for pH, appearance, insoluble matter and residual content of argatroban.

[4] = test system: fibrin formation in anterior sac; assay: Inhibition of fibrin formation in anterior sac after argon laser irradiation of iris, slit lamp evaluation; format: in vivo, colored house rabbits
Description: Reference Example--Argatroban concentration and inhibition of fibrin formation in anterior sac
Animal used: 18 colored house rabbits weighing 2 kg and showing no abnormality in the eyes by visual observation
Drug used: test drug (a solution of argatroban at a concentration of 0.1 W/V % or 0.2 W/V % prepared according to the eye drop of Example 1)
: control (physiological saline)
Test: Fibrin was formed in anterior sac by irradiation at four sites in iris with argon laser (AC-3500, Nidek). The irradiation was conducted at a spot size of 100 μm, time 0.2 sec and output 1 watt. The fibrin in anterior sac was evaluated according to the evaluation criteria given below for the visual observation with time with a slit lamp after the irradiation up to 3 hours thereafter.
The test drug argatroban was administered 7 times by installation of 50 μl of the drug to one of the eyes every 10 minutes beginning from 30 minutes before the laser irradiation to 30 minutes after the irradiation, and physiological saline was administered to the other eye.
Slit lamp observation: The presence of fibrin at the 4 sites irradiated with laser was graded (0 or 1). When the fibrin amount was great, the grade was doubled. The fibrin in pupil region was graded in five stages of from 0 to 4 points. The full mark was; irradiation site: 4 points×2+pupil region: 4 points=12 points.

[5] = Stability of aqueous solution of argatroban in a brown bottle (background statement); format: physicochemical
Experimental: as §1

[6] = Eye irritation examination; format: in vivo, house rabbits
Description: Eye irritation caused by the respective, aforementioned solutions of α-cyclodextrin, β-cyclodextrin, γ-cyclodextrin and caffeine was examined using house rabbits.

fibrin formation = conditions: administration for a few weeks after the operation, cited from earlier work
[7] = solutions of Example 1, compound at 1.0 W/V %

With `CC1CNc2c(cccc2S(=O)(=O)N[C@@H](CCCNC(=N)N)C(=O)N2CC[C@@H](C)C[C@@H]2C(=O)O)C1.O` (mixture of isomers) [argatroban, (2R,4R)4-methyl-1-[N^2-((RS)-3-methyl-1,2,3,4-tetrahydro-8-quinolinesulfonyl)-L-arginyl]-2-piperidinecarboxylic acid monohydrate] the solubility [1] was roughly 900 µg/mL, the solubility thermodynamic at 12 h ([2]; argatroban with caffeine 1.0 W/V %) was 2000 µg/mL and the solubility thermodynamic at 12 h ([2]; argatroban with α-cyclodextrin 1.0 W/V %) was 1340 µg/mL. It also gave a solubility thermodynamic at 12 h ([2]; argatroban with β-cyclodextrin 1.0 W/V %) of 2590 µg/mL, a solubility thermodynamic at 12 h ([2]; argatroban with γ-cyclodextrin 1.0 W/V %) of 1320 µg/mL and a solubility thermodynamic at 12 h ([2]; argatroban, no compound added) of 930 µg/mL. The “solubility of argatroban relative to that obtained when no compound was added” value ([2]; with caffeine 1.0 W/V %) was “about twice”, the improvement in solubility ([2]; with α-, β-, γ-cyclodextrin and caffeine) was “superior improvement in solubility” and the “solubility of argatroban relative to that obtained when no compound was added” value ([2]; with β-cyclodextrin 1.0 W/V %) was “about thrice”. The stability against light [3] was “improved by caffeine”, the “percent inhibition of fibrin formation” value ([4]; 0.1 W/V % argatroban, 50 μl instilled 7 times every 10 minutes) was “about 50%” and the “inhibition of fibrin formation at every measurement point” value ([4]; 0.1 W/V % argatroban, up to 3 hours after laser irradiation) was “significantly inhibited”. The “inhibition of fibrin formation” value ([4]; 0.2 W/V % argatroban, 50 μl instilled 7 times every 10 minutes) was “completely inhibited” and the “preservation stability of aqueous solution” value [5] was “can be preserved stably in a brown bottle”.

In the case of `Cn1c(=O)c2c(ncn2C)n(C)c1=O` [caffeine], the Eye irritation [6, 7] is reported as “no specific problems, thus showing no harmful effect on the eye tissue”.

In the case of `COc1ccc2c(c1)c(CC(=O)O)c(C)n2C(=O)c1ccc(Cl)cc1` [indomethacin], the “effect after entoptic operation” value (fibrin formation) is listed as “has not shown dependable effects” and the “adverse effects after entoptic operation” value (fibrin formation; though not often) is listed as “delay in healing of wounds or disorders in cornea”.

With `OC[C@H]1O[C@@H]2O[C@H]3[C@H](O)[C@@H](O)[C@@H](O[C@H]4[C@H](O)[C@@H](O)[C@@H](O[C@H]5[C@H](O)[C@@H](O)[C@@H](O[C@H]6[C@H](O)[C@@H](O)[C@@H](O[C@H]7[C@H](O)[C@@H](O)[C@@H](O[C@H]1[C@H](O)[C@H]2O)O[C@@H]7CO)O[C@@H]6CO)O[C@@H]5CO)O[C@@H]4CO)O[C@@H]3CO` [α-cyclodextrin] the Eye irritation ([6]; rabbit, in vivo) was “no specific problems, thus showing no harmful effect on the eye tissue”.

With `OC[C@H]1O[C@@H]2O[C@H]3[C@H](O)[C@@H](O)[C@@H](O[C@H]4[C@H](O)[C@@H](O)[C@@H](O[C@H]5[C@H](O)[C@@H](O)[C@@H](O[C@H]6[C@H](O)[C@@H](O)[C@@H](O[C@H]7[C@H](O)[C@@H](O)[C@@H](O[C@H]8[C@H](O)[C@@H](O)[C@@H](O[C@H]1[C@H](O)[C@H]2O)O[C@@H]8CO)O[C@@H]7CO)O[C@@H]6CO)O[C@@H]5CO)O[C@@H]4CO)O[C@@H]3CO` [β-cyclodextrin] the Eye irritation ([6]; rabbit, in vivo) was “no specific problems, thus showing no harmful effect on the eye tissue”.

With `OC[C@H]1O[C@@H]2O[C@H]3[C@H](O)[C@@H](O)[C@@H](O[C@H]4[C@H](O)[C@@H](O)[C@@H](O[C@H]5[C@H](O)[C@@H](O)[C@@H](O[C@H]6[C@H](O)[C@@H](O)[C@@H](O[C@H]7[C@H](O)[C@@H](O)[C@@H](O[C@H]8[C@H](O)[C@@H](O)[C@@H](O[C@H]9[C@H](O)[C@@H](O)[C@@H](O[C@H]1[C@H](O)[C@H]2O)O[C@@H]9CO)O[C@@H]8CO)O[C@@H]7CO)O[C@@H]6CO)O[C@@H]5CO)O[C@@H]4CO)O[C@@H]3CO` [γ-cyclodextrin] the Eye irritation [6, 7] was “no specific problems, thus showing no harmful effect on the eye tissue”.
